The test system of one data set is THP-1. The experiment in a line: Cytotoxicity against human THP-1 cells assessed as increase in LDH release incubate for 24 hrs by trypan-blue staining based analysis. It counts as functional, cell-based. The following applies: THP-1, 24 h. A general note: LDH leaks from cells whose membrane has failed.
A short description of data set [1]: Selectivity ratio of IC50 for human THP-1 cells to MIC for Clostridium difficile ATCC 43255. It counts as toxicity.
The subject of a further data set is Clostridioides difficile. The data set can be described thus: Antibacterial activity against Clostridium difficile ATCC 43255 measured after 48 hrs by two fold serial dilution method. Type of data set: functional.

Converted amounts (≈) assume the structure as drawn.

In general, IC50 refers to the midpoint of a concentration-inhibition curve. `Oc1ccc(-c2nc(-c3ccc(Oc4cccc(I)c4)cc3)no2)cc1`: the IC50 in the data set with THP-1 was 17 µg/mL (≈ 37.3 µM). Besides, the selectivity ratio in data set [1] amounted to 4.

What is called MIC is the smallest concentration in the dilution series that meets the test's criterion for growth inhibition. Read a high MIC as a less susceptible organism. With `Oc1ccc(-c2nc(-c3ccc(Oc4ccc(C(F)(F)F)cc4)cc3)no2)cc1`, the IC50 in the data set on THP-1 was found to be 17 µg/mL (≈ 42.7 µM). Moreover, the selectivity ratio in data set [1] is 9. In the data set with Clostridioides difficile, the lowest concentration to inhibit growth (MIC) was 2 µg/mL (≈ 5.02 µM).

Regarding `O=[N+]([O-])c1c[nH]nc1-c1nc(-c2ccc3oc4ccccc4c3c2)no1`, the selectivity ratio in data set [1] was determined as 2. The compound further came in with an MIC in the data set with Clostridioides difficile of 4 µg/mL (≈ 11.5 µM).

Consider `O=[N+]([O-])c1cc(-c2nc(-c3ccc(Oc4ccc(C(F)(F)F)cc4)cc3)no2)cnc1O`, for which the IC50 with THP-1 is 37 µg/mL (≈ 83.3 µM). Moreover, the selectivity ratio in data set [1] stood at 19. Further, in the data set on Clostridioides difficile, the MIC came out at 2 µg/mL (≈ 4.5 µM).

Take `O=[N+]([O-])c1c[nH]nc1-c1nc(-c2ccc(Oc3ccc(I)cc3)cc2)no1`: in the data set with THP-1, the IC50 worked out at 100 µg/mL (≈ 210 µM). For the same compound, the selectivity ratio in data set [1] was found to be 25. Further, in the data set with Clostridioides difficile, 4 µg/mL (≈ 8.42 µM) was the least that counted as inhibitory (MIC).

Take `Oc1c(F)cc(-c2nc(-c3ccc(Oc4ccc(C(F)(F)F)cc4)cc3)no2)cc1F`: in the data set with THP-1, the IC50 amounted to 18 µg/mL (≈ 41.4 µM). In addition, the selectivity ratio in data set [1] turned out to be 4.

For the compound `Oc1ccc(-c2nc(-c3ccc(Oc4ccccc4)cc3)no2)cc1`, the IC50 in the data set with THP-1 turned out to be 17 µg/mL (≈ 51.5 µM). In data set [1], the selectivity ratio came to 8. Moreover, in the data set on Clostridioides difficile, inhibition of growth (MIC) required 2 µg/mL (≈ 6.05 µM).

Regarding `O=[N+]([O-])c1c[nH]nc1-c1nc(-c2ccc(OC(F)(F)F)cc2)no1`, the IC50 in the data set on THP-1 amounted to 25 µg/mL (≈ 73.3 µM). The selectivity ratio in data set [1] is 6. This compound also displayed an MIC in the data set on Clostridioides difficile of 4 µg/mL (≈ 11.7 µM).

Consider `Oc1ccc(-c2nc(-c3ccc(OC4CCCCC4Br)cc3)no2)cc1` (centres undefined), for which the IC50 in the data set with THP-1 came to 8.4 µg/mL (≈ 20.2 µM). The selectivity ratio in data set [1] is 4. In the data set on Clostridioides difficile, this compound gave an MIC of 2 µg/mL (≈ 4.82 µM).

For the compound `O=[N+]([O-])c1c[nH]nc1-c1nc(-c2ccc(Oc3ccc(C(F)(F)F)cc3)cc2)no1`, the IC50 with THP-1 turned out to be 21 µg/mL (≈ 50.3 µM). The selectivity ratio in data set [1] is 5. The MIC against Clostridioides difficile came out at 4 µg/mL (≈ 9.59 µM).

With `Oc1ccc(Nc2nc(-c3ccc(OC4CCCC4)cc3)no2)cc1`, the lowest concentration to inhibit growth against Clostridioides difficile (MIC) was 32 µg/mL (≈ 94.8 µM).

In the data set on Clostridioides difficile, `Oc1ccc(-c2nc(-c3ccc4c(c3)OCO4)no2)cc1` had an MIC of over 128 µg/mL.

Take `Oc1ccc(/C=C/c2nc(-c3ccc(OC4CCCC4)cc3)no2)cc1`: the MIC with Clostridioides difficile was determined as 64 µg/mL (≈ 184 µM).

Consider `Cl.NCc1ccc(-c2nc(-c3ccc(Oc4ccc(C(F)(F)F)cc4)cc3)no2)cc1`, for which the selectivity ratio in data set [1] turned out to be 1. In addition, the MIC against Clostridioides difficile stood at 4 µg/mL.

As to `CC(C)(C)OC(=O)N1CCC(Nc2c[nH]nc2-c2nc(-c3ccc(Oc4ccc(C(F)(F)F)cc4)cc3)no2)CC1`, in the data set on Clostridioides difficile, the MIC was over 128 µg/mL.

In turn, `CN1CCC(Oc2ccc(-c3noc(-c4nc([N+](=O)[O-])c[nH]4)n3)cc2)C1.Cl` (centres undefined) had an MIC against Clostridioides difficile of over 128 µg/mL.

In the data set with Clostridioides difficile, `Oc1cc(-c2nc(-c3ccc(Oc4ccc(C(F)(F)F)cc4)cc3)no2)cc(F)c1O` yielded an MIC of over 128 µg/mL.

With `O=[N+]([O-])c1ccccc1Oc1ccc(-c2noc(-c3ccc(O)cc3)n2)cc1`, the IC50 with THP-1 stood at 16 µg/mL (≈ 42.6 µM). In addition, the selectivity ratio in data set [1] was 3. Besides, it took 4 µg/mL (≈ 10.7 µM) to inhibit growth in the data set with Clostridioides difficile (MIC).

Compound `O=Cc1ccc(-c2noc(-c3ccc(O)cc3)n2)cc1` yielded an MIC with Clostridioides difficile of over 128 µg/mL.

With `O=C(Nc1c[nH]nc1-c1nc(-c2ccc(Oc3ccc(C(F)(F)F)cc3)cc2)no1)c1ccccc1`, in the data set with Clostridioides difficile, the MIC is over 128 µg/mL.

In turn, `Cl.NCCCCc1nc(-c2ccc(OC3CCCC3)cc2)no1` had an MIC against Clostridioides difficile of 128 µg/mL.

For `Fc1ccc2oc3ccc(-c4noc(-c5ccc6[nH]ccc6c5)n4)cc3c2c1`, the MIC in the data set on Clostridioides difficile was over 128 µg/mL.

`Nc1ccc(-c2nc(-c3ccc(Oc4ccc(C(F)(F)F)cc4)cc3)no2)cc1F` showed an MIC in the data set on Clostridioides difficile of over 128 µg/mL.

In the case of `FC(F)(F)c1ccc(Oc2ccc(-c3noc(-c4n[nH]cc4I)n3)cc2)cc1`, the MIC against Clostridioides difficile is over 128 µg/mL.

As for `Nc1cncc(-c2nc(-c3ccc(Oc4ccc(C(F)(F)F)cc4)cc3)no2)c1`, the MIC with Clostridioides difficile was over 128 µg/mL.

For the compound `N#Cc1ccc(Oc2ccc(-c3noc(-c4ccc(O)cc4)n3)cc2)cc1`, the MIC with Clostridioides difficile is over 128 µg/mL.

Consider `Clc1cccc(N2CCN(c3noc(-c4ccc5[nH]ccc5c4)n3)CC2)c1`, for which, in the data set on Clostridioides difficile, the MIC was over 128 µg/mL.

On to `COc1ccc(-c2noc(-c3ccc(O)cc3)n2)cc1`, for which, in the data set with Clostridioides difficile, the MIC is over 128 µg/mL.

As for `Oc1ccc(-c2nc(-c3ccc(Oc4ccc(C(F)(F)F)cc4)cc3)no2)cc1F`, the IC50 in the data set on THP-1 was found to be 5.2 µg/mL (≈ 12.5 µM). Moreover, the selectivity ratio in data set [1] was determined as 1. This compound displayed an MIC with Clostridioides difficile of 4 µg/mL (≈ 9.61 µM).

For `Clc1ccc(N2CCN(c3noc(-c4ccc5[nH]ccc5c4)n3)CC2)cc1Cl`, the MIC in the data set on Clostridioides difficile is over 128 µg/mL.

With `FC(F)(F)c1ccc(Oc2ccc(-c3noc(-c4n[nH]cc4NC4CCCC4)n3)cc2)cc1`, in the data set with Clostridioides difficile, the MIC is over 128 µg/mL.

The compound `FC(F)(F)c1ccc(Oc2ccc(-c3noc(-c4cc[nH]n4)n3)cc2)cc1` showed an MIC in the data set with Clostridioides difficile of over 128 µg/mL.

On to `Oc1ccc(-c2nc(N3CCN(c4ccccc4)CC3)no2)cc1`, for which the MIC in the data set on Clostridioides difficile was over 128 µg/mL.

Take `Oc1ccc(-c2noc(-c3ccc(OC4CCCC4)cc3)n2)cc1`: the IC50 with THP-1 was 8.5 µg/mL (≈ 26.4 µM). For the same compound, the selectivity ratio in data set [1] was found to be 2. The compound also registered an MIC against Clostridioides difficile of 4 µg/mL (≈ 12.4 µM).

In the data set with Clostridioides difficile, `c1cc2cc(-c3nc(-c4ccc5c(c4)CCO5)no3)ccc2[nH]1` displayed an MIC of over 128 µg/mL.
